# Assays:
# [1] = tested on: erythropoietic progenitor cells; conditions: in vitro cell culture, presence of hematopoietic stimulating hormones; Table 1; cited from earlier work
# [2] = general knowledge; cited from earlier work
# [3] = tested on: late erythrocytic progenitor cells (CFU-e); assay: Differentiation and proliferation of late erythrocytic progenitor cells (CFU-e), cluster colony formation; assay type: cell-based, mouse (BDF1-strain); conditions: 20 μg/ml, Runs 2 to 4; for Number of colonies formed in the dolichols-added group (CFU-e): 2 days, erythropoietin 0.25 unit, mean ± S.E., 6 replicas, solvent controls 124.2 ± 2.7, 246.0 ± 5.0, 124.7 ± 2.9
# Experimental: (§1) The mouse bone marrow cells used in the following experiments were all prepared as follows:
# (§2) BDF1 -strain mice (female, 8 to 10 weeks old) were killed by cervical dislocation, and the femurs were collected under sterile conditions. The bone marrow cells were flushed out from the femurs with α-medium, and formed into a single cell suspension by repeated aspiration with a 26-gauge needle fitted to a 1 ml-syringe. The cells were washed two times with α-medium by centrifugation at 200×G for 5 minutes and used in the following experiments.
# In accordance with the method of Murphy et al. mentioned above, mouse bone marrow cells were plated at 2.5×10^4 nuclear cells into 0.5 ml of α-medium containing 0.25 unit of erythropoietin, 30% fetal bovine serum, 1% bovine serum albumin, 0.1 mM 2-mercaptoethanol and 0.4% methyl cellulose with 10 μg of dolichol dissolved in 1 μl of ethanol, 10 μg of dolichyl phosphate dispersed in 0.5 μl of dimethyl sulfoxide, 1 μl of ethanol or 0.5 μl of dimethyl sulfoxide in a 16 mm.phi. tissue culture plate, and incubated at 37° C. in a humidified atmosphere of 5% carbon dioxide in air for 2 days. The number of cluster colonies consisting of 8 to 64 erythroblasts derived from CFU-e in the tissue culture plate was scored with an inverted microscope. The experiment was carried out by 6 replica assays for each group, and the average number of the colonies formed was determined. The results are shown in Table 3, in the rows of Runs 2 to 4.
# [4] = tested on: sea urchin embryos; conditions: compactin added to the culture of the embryos; cited from earlier work
# [5] = tested on: dolichol biosynthesis in spleen; conditions: phenylhydrazine subcutaneous (induced anemia); cited from earlier work
# [6] = tested on: early erythrocytic progenitor cells (BFU-e); assay: Differentiation and proliferation of early erythrocytic progenitor cells (BFU-e), burst colony formation; assay type: cell-based, mouse (BDF1-strain); conditions: 20 μg/ml, Run 1
# Experimental: as §1, §2
# In accordance with the method of Murphy et al. (In Vitro Aspects of Erythropoiesis, page 262, Sringer-Verlag, 1978), mouse bone marrow cells were plated at 2×10^5 nuclear cells into 1 ml of α-medium containing 1 unit of erythropoietin, 30% fetal bovine serum, 1% bovine serum albumin, 0.1 mM 2-mercaptoethanol and 0.8% methyl cellulose with 20 μg of dolichyl phosphate dispersed in 1 μl of dimethyl sulfoxide or 1 μl of dimethyl sulfoxide in a 35 mm.phi. tissue culture plate, and incubated at 37° C. in a humidified atmosphere of 5% carbon dioxide in air for 9 days. The number of burst colonies consisting of more than 500 erythroblasts derived from BFU-e in the tissue culture plate was scored with an inverted microscope. The experiment was carried out by 6 replica assays for each group, and the average number of the colonies formed was determined.
# [7] = tested on: granulocyte-macrophage progenitor cells (CFU-c); assay: Differentiation and proliferation of granulocyte-macrophage progenitor cells (CFU-c), colony formation; assay type: cell-based, mouse (BDF1-strain); conditions: printed 20 g/ml (method: 20 μg in 1 ml), Run 5
# Experimental: as §1, §2
# In accordance with the method of Worton et al. [R. G. Worton et al., J. Cell Physiol., 74, 171 (1969)], mouse bone marrow cells were plated at 1×10^5 nuclear cells into 1 ml of α-medium containing 10% L cell-conditioned medium as source of colony stimulating factor, 20% fetal bovine serum and 0.8% methyl cellulose with 20 μg of dolichyl phosphate dispersed in 1 μl of dimethyl sulfoxide or 1 μl of dimethyl sulfoxide in a 35 mm.phi. tissue culture plate, and incubated at 37° C. in a humidified atmosphere of 5% carbon dioxide in air for 7 days. The number of colonies consisting of more than 50 cells (granulocytecolonies, macrophage colonies or their mixed colonies) derived from […] was scored with an inverted microscope. The experiment was carried out by 6 replica assays for each group, and the average number of the colonies formed was determined.
# [8] = tested on: mice; assay: Acute toxicity of dolichyl phosphate in mice; assay type: in vivo, mouse (BDF1-strain); conditions: 1000 mg/kg and 2000 mg/kg i.p.; 2nd day of administration
# Experimental: (2) Dolichyl phosphate synthesized in Referential Example 3 below was dissolved in the same amount of sesame oil, and added to a 1% aqueous solution of sodium carboxy methyl cellulose so that the concentration of dolichyl phosphate reached 5% V/V. The resulting emulsion was used in the test.
# BDF1 -strain mice (20-23 g, female), 6 per group, were used.
# [9] = tested on: erythropoiesis; assay: Erythropoiesis in vivo, 59Fe incorporation in hereditarily anemic mice (Run 7); design: species or system mouse (WBB6 F1-W/Wv-strain); conditions: 250 mg/kg once i.p.
# Experimental: Phenylhydrazine was administered to normal mice and hereditarily anemic mice to induce severe hemolytic anemia. Then, the rate of erythropoiesis during recovering of anemia was determined by measuring the rate of radioactive iron (^59 Fe) incorporation into newly formed red blood cells [P. M. Cotes, D. R. Bangham, Nature (London), 191, 1067 (1961)]. The testing method and results are described below.
# Dolichyl phosphate in a dose of 250 mg/kg (0.2 ml of an emulsion obtained by emulsifying […] of dolichyl phosphate and 25 mg of sesame oil in 1 ml of a 1% aqueous solution of sodium carboxymethyl cellulose per 20 g of the body weight) was intraperitoneally administered to hereditarily anemic WBB6 F1 -W/Wv-strain mice (6 weeks old, female) on the 1st day of the experiment. A 1% aqueous solution of sodium carboxymethyl cellulose was intraperitoneally administered (0.2 ml/20 g of body weight) to a control group. On the 2nd day, the mice in each group were subcutaneously injected with phenylhydrazine hydrochloride in a dose of 60 mg/kg. […] On the 5th day, 0.5 ml of the whole blood was taken from each mouse, and the ^59 Fe incorporation rates during the period of 48 hours were measured as in Run 6. The experiment was carried out on 6 mice in each group, and the average value of the incorporation rates was calculated.
molecule,measurement,setting,value
C[C@@H]1C[C@H]2[C@@H]3CCC4=CC(=O)C=C[C@]4(C)[C@@]3(F)[C@@H](O)C[C@]2(C)[C@@]1(O)C(=O)CO [Dexamethasone],Effect on colony formation of erythropoietic progenitor cells,[1],.uparw.
same,Side-effects,[2],"clinically undesirable side-effects such as electrolytic disorders, hypertension, peptic ulcer, diabetes, liver impediments, and masculinization"
CC(C)=CCC/C(C)=C/CC/C(C)=C/CC/C(C)=C\CC/C(C)=C\CC/C(C)=C\CC/C(C)=C\CC/C(C)=C\CC/C(C)=C\CC/C(C)=C\CC/C(C)=C\CC/C(C)=C\CC/C(C)=C\CC/C(C)=C\CC/C(C)=C\CC/C(C)=C\CC/C(C)=C\CC/C(C)=C\CC[C@H](C)CCO [Dolichol (n = 15)],Number of colonies formed in the dolichols-added group (CFU-e),[3],293.0 ± 6.2
same,activation at 20 µg/mL,"[3]; Mus musculus, 48 h, vs solvent-added control group, read-out: Percent increase (%) of colony formation (CFU-e)",19.1%
CC[C@H](C)C(=O)O[C@H]1CCC=C2C=C[C@H](C)[C@H](CC[C@@H]3C[C@@H](O)CC(=O)O3)[C@H]21 [compactin],Differentiation of sea urchin embryos,[4],did not occur
"NNc1ccccc1 [phenylhydrazine, reference compound]",Rate of dolichol biosynthesis in spleen,[5],greatly increased
Growth hormone: hormone named in Table 1,Effect on colony formation of erythropoietic progenitor cells,[1],.uparw.
Prostaglandin E,Effect on colony formation of erythropoietic progenitor cells,[1],.uparw.
Thyroid hormone,Effect on colony formation of erythropoietic progenitor cells,[1],.uparw.
dolichyl phosphate,Number of colonies formed in the dolichols-added group (BFU-e),"[6]; 9 days, erythropoietin 1 unit, mean ± S.E., 6 replicas, solvent control 73.7 ± 3.4",99.5 ± 2.4
same,Percent increase (%) of colony formation (BFU-e),[6]; vs solvent-added control group,+35.0%
same,Number of colonies formed in the dolichols-added group (CFU-c),"[7]; 7 days, mean ± S.E., 6 replicas, solvent control 256.8 ± 4.3",295.3 ± 4.9
same,Percent increase (%) of colony formation (CFU-c),[7]; vs solvent-added control group,+15.0%
same,Mortality,[8],no case of death in all of the mice tested
same,Number of colonies formed in the dolichols-added group (CFU-e),[3],166.7 ± 2.4
same,Percent increase (%) of colony formation (CFU-e),[3]; vs solvent-added control group,+33.7%
same,"59Fe incorporation rate (%), dolichol administered group","[9]; 48 hours, control group 21.4",23.1%
same,Erythropoiesis enhancing ratio (%),[9]; percent increase of 59Fe incorporation rate vs control,+7.9%
"Human chorionic somatomammotropin: hormone named in Table 1 (protein, UniProt P0DML2 27-217, looked up) Chorionic somatomammotropin …: VQTVPLSRLFDHAMLQAHRAHQLAIDTYQEFEETYIPKDQKYSFLHDSQTSFCFSDSIPTPSNMEETQQKSNLELLRISLLLIESWLEPVRFLRSMFANNLVYDTSDSDDYHLLKDLEEGIQTLMGRLEDGSRRTGQILKQTYSKFDTNSHNHDALLKNYGLLYCFRKDMDKVETFLRMVQCRSVEGSCGF",Effect on colony formation of erythropoietic progenitor cells,[1],.uparw.

# Reference: patent US4812443A, “Methods for enhancing differentiation and proliferation of hematopoietic progenitor cells” (Kuraray Co., Ltd., priority 1984, dated 1989)
